Results from US20070111258A1, “Compositions and methods for modulating the acute phase response” (priority 2005, published 2007).

Tests used:
CREBH = assay: Cleavage of flag-tagged CREBH in transfected wild-type CHO cells (nuclear fraction Western blot); assay type: cell-based, Chinese hamster; settings: Tm 5 μg/ml 10 hours
Protocol: FIG. 5 depicts the cleavage of CREBH by proteases S1P and S2P upon ER stress. (A) CREBH is cleaved by S1P-KDEL, but not S1P-KDAS. COS7 cells were co-transfected with a construct expressing flag-tagged full-length CREBH and a construct expressing S1P-KDAS or S1P-KDEL. CREBH construct DNA (1 μg) was mixed with S1P-KDEL or S1P-KDAS construct DNA (1 or 2 μg as indicated) for transfection of cells in one well of a 6-well plate. COS7 cells expressing full-length CREBH were also cultured in the absence or presence of 0.5 μM BFA for 8 hours. COS7 cells expressing CREBH-ΔC, the cytosolic/nuclear form of CREBH, were included as a positive control. Expression and cleavage of CREBH were detected by Western blot analysis using an anti-flag antibody. (B) Cleavage of CREBH in wild-type (K1), S2P-deficient (M19), and […] CHO cells. […]
For analysis of expression and cleavage of CREBH protein, total cell lysates were prepared from H2.35 cells or COS7 cells using Nonidet P-40 lysis buffer (1% NP-40, 50 mM Tris-HCl at pH 7.5, 150 mM NaCl, 0.05% SDS) supplemented with protease inhibitors (Complete Mini from Roche Applied Science), 0.1 mM sodium vanadate, and 1 mM sodium fluoride. […] The total cell lysate, membrane and nuclear fractions were subjected to SDS-PAGE and then analyzed by Western blot using anti-flag monoclonal antibody or other antibodies. […]

ApoB mRNA = assay: Endogenous ApoB mRNA in mouse liver; assay type: in vivo; settings: Tm 2 μg/gram body weight i.p.; liver at 24 hours
Protocol: C57BL/6J mice at 3-months of age were injected intraperitoneally with Tm (2 μg/gram body weight) in 150 mM dextrose solution. Mice were injected with the same volume of dextrose solution as a control. Liver tissue were collected from mice at 24 hours after injection for RNA isolation. Quantitative real-time RT-PCR was used to determine the ApoB and the spliced XBP1 mRNA levels. Fold changes of mRNA induction were determined after normalization of the mRNA levels to internal control 18S ribosomal RNA levels. Data points are fold changes of the ApoB or spliced XBP1 mRNA levels for individuals, n=5 mice per injection.

tunicamycin [Tm] was tested, and the “increase of the nuclear form of CREBH” value (CREBH) was “approximately 6 fold” and the “induction of endogenous ApoB mRNA in mice” value (ApoB mRNA) was “only slightly increased”.
